Measured values as given in publication PMC11357054, “Azobenzenesulfonamide Carbonic Anhydrase Inhibitors as New Weapons to Fight Helicobacter pylori: Synthesis, Bioactivity Evaluation, In Vivo Toxicity, and Computational Studies” (Pharmaceuticals, 2024).
Converted amounts (≈) assume the structure as drawn.

Assays:
hCA I = biological target: T1, hCA I (Homo sapiens, UniProt P00915); assay: stopped-flow CO2 hydration; type: biochemical; conditions: read-out: KI (nM) * / Human Isoforms / hCA I
T1 construct: gene CA1; purchased from Merck
Description: stopped-flow CO2 hydration on hCA I

hCA II = biological target: T2, hCA II (Homo sapiens, UniProt P00918); assay: stopped-flow CO2 hydration; type: biochemical; conditions: read-out: KI (nM) * / Human Isoforms / hCA II
T2 construct: gene CA2; purchased from Merck
Description: stopped-flow CO2 hydration on hCA II

hCA IX = biological target: T3, hCA IX (Homo sapiens, UniProt Q16790); assay: stopped-flow CO2 hydration; type: biochemical; conditions: read-out: KI (nM) * / Human Isoforms / hCA IX
T3 construct: gene CA9
Description: stopped-flow CO2 hydration on hCA IX

PgiγCA = biological target: T4, PgiγCA; assay: stopped-flow CO2 hydration; type: biochemical, Porphyromonas gingivalis; conditions: pH […] HEPES, […] Na2SO4, […] min preincubation, r.t.; read-out: KI (nM) * / Bacterial Isoforms / Pgi γCA
T4 construct: gene PgiCA; recombinant, obtained in-house

HpαCA = biological target: T5, HpαCA (Helicobacter pylori, UniProt B5Z8I0); assay: stopped-flow CO2 hydration; type: biochemical; conditions: read-out: KI (nM) * / Bacterial Isoforms / Hp αCA
T5 construct: gene HPG27_1129; recombinant, obtained in-house; PDB 4XFW is given for docking only
T5 sequence (B5Z8I0 22-247): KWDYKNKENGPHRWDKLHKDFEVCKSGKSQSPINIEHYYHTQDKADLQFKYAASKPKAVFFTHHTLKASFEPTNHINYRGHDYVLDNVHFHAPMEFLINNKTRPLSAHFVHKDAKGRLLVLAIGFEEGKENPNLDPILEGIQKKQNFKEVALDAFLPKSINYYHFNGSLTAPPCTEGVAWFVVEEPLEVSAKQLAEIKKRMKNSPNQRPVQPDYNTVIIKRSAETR

EcoβCA = biological target: T6, EcoβCA (Escherichia coli, UniProt P61517); assay: stopped-flow CO2 hydration; type: biochemical; conditions: read-out: KI (nM) * / Bacterial Isoforms / Eco βCA
T6 construct: gene can; recombinant, obtained in-house

hCA XII = biological target: T7, hCA XII (Homo sapiens, UniProt O43570); assay: stopped-flow CO2 hydration; type: biochemical; conditions: read-out: KI (nM) * / Human Isoforms / hCA XII
T7 construct: gene CA12
Description: stopped-flow CO2 hydration on hCA XII

HpβCA = biological target: T8, HpβCA (Helicobacter pylori, UniProt Q9ZN54); assay: stopped-flow CO2 hydration; type: biochemical; conditions: read-out: KI (nM) * / Bacterial Isoforms / Hp βCA
T8 construct: gene cynT; recombinant, obtained in-house
T8 sequence (Q9ZN54 1-221): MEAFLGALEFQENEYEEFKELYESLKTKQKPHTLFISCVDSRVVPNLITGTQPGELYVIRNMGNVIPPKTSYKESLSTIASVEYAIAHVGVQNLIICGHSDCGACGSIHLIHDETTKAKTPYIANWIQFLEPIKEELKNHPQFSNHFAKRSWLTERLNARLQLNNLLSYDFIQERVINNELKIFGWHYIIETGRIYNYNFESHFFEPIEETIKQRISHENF

PsCA3 = biological target: T9, PsCA3 (Pseudomonas aeruginosa, UniProt Q9HVB9); assay: stopped-flow CO2 hydration; type: biochemical; conditions: read-out: KI (nM) * / Bacterial Isoforms / Ps CA3
T9 construct: gene PA4676; recombinant, obtained in-house
T9 sequence (Q9HVB9 1-215): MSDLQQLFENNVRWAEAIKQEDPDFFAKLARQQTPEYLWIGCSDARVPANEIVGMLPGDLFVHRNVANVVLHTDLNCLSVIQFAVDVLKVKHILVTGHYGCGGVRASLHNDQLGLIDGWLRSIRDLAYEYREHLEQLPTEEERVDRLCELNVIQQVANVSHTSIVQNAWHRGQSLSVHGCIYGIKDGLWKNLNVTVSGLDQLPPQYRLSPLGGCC

PgiβCA = biological target: T10, PgiβCA; assay: stopped-flow CO2 hydration; type: biochemical, Porphyromonas gingivalis; conditions: pH […] HEPES, […] Na2SO4, […] min preincubation, r.t.; read-out: KI (nM) * / Bacterial Isoforms / Pgi βCA
T10 construct: gene PgiCAb; recombinant, obtained in-house

H. pylori ATCC 43504 = system: T11, H. pylori ATCC 43504; assay: microbe, parasite or virus in culture; set-up: species or system Helicobacter pylori ATCC 43504; MIC by broth microdilution, alamarBlue and CFU count; MBC by CFU count; conditions: Helicobacter pylori, ATCC43504
T11 construct: ATCC 43504
Description: H. pylori ATCC 43504 was cultured on a Columbia Agar base (Becton Dickinson and Company, Franklin Lakes, NJ, USA) supplemented with 10% horse serum (Merck, St. Louis, MO, USA) and 0.25% yeast extract (Oxoid Ltd., Hampshire, UK), incubated at 37 °C for 72 h in a microaerophilic atmosphere (CampyGen, Thermo Fisher Scientific, Milan, Italy). Colonies were collected and transferred into 10 mL of Brain Heart Infusion broth (BHI, Oxoid Ltd., Hampshire, UK) supplemented with 5% (v/v) of fetal bovine serum (FBS, Merck, Milan, Italy) and incubated overnight at 37 °C, at 125 rpm under microaerophilic conditions. After 18 h of incubation, the broth culture was diluted to obtain a bacterial suspension of 10^6 CFU/mL. MICs were determined by three different assays: the broth micro-dilution method, the alamarBlue assay, and the CFU count. […] This bacterium was selected based on the inhibitory potency evidenced by the two series of azobenzenesulfonamides against the HpCAs.

T1 sequence (P00915 2-261): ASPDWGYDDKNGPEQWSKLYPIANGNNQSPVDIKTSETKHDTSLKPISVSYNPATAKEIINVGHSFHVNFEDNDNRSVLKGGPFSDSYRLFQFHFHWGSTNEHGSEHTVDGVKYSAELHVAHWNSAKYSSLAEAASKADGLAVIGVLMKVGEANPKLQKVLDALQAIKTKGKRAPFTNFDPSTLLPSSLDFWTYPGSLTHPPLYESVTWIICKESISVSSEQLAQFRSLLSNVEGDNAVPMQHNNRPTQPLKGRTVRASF
T7 sequence (O43570 30-289 limits assumed): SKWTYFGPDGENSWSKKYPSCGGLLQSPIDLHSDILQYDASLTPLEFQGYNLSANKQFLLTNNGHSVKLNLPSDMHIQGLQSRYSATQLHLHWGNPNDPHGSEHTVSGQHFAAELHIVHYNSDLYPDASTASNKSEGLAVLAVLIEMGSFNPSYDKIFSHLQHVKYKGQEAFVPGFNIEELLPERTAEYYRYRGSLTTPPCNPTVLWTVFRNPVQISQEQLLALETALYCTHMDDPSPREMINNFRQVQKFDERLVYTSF
T6 sequence (P61517 whole entry, canonical isoform): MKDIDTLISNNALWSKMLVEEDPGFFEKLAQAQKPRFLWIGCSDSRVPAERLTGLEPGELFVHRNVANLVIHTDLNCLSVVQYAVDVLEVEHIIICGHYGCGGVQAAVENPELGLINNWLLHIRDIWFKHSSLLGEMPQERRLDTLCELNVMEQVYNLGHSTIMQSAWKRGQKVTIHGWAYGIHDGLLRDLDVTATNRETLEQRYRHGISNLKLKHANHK

| SMILES | Ki (hCA I) | Ki (hCA II) | Ki (hCA IX) | Ki (PgiγCA) | Ki (HpαCA) | Ki (EcoβCA) | Ki (hCA XII) | Ki (HpβCA) | Ki (PsCA3) | Ki (PgiβCA) | MBC (H. pylori ATCC 43504) | MIC (H. pylori ATCC 43504) |
| --- | --- | --- | --- | --- | --- | --- | --- | --- | --- | --- | --- | --- |
| COc1ccc(O)c(/N=N/c2ccc(S(N)(=O)=O)cc2)c1 [4a, (E)-4-((2-hydroxy-5-methoxyphenyl)diazenyl)benzenesulfonamide] | 45 nM | 24.1 nM | 201 nM | 3440 nM | 65.8 nM | 400 nM | 9.5 nM | 74.1 nM | 228 nM | 803 nM | 32 µg/mL (≈ 104 µM) | 8 µg/mL (≈ 26 µM) |
| COc1cc(/N=N/c2ccc(S(N)(=O)=O)cc2)ccc1O [4b, (E)-4-((4-hydroxy-3-methoxyphenyl)diazenyl)benzenesulfonamide] | 34.8 nM | 3.3 nM | 831 nM | 837 nM | 120 nM | 95.8 nM | 21.8 nM | 49.7 nM | 702 nM | 1920 nM | 32 µg/mL (≈ 104 µM) | 32 µg/mL (≈ 104 µM) |
| COc1cc(O)ccc1/N=N/c1ccc(S(N)(=O)=O)cc1 [4c, (E)-4-((4-hydroxy-2-methoxyphenyl)diazenyl)benzenesulfonamide] | 84.9 nM | 5.4 nM | 545 nM | 2000 nM | 70.9 nM | 96.3 nM | 34.7 nM | 17.1 nM | 221 nM | 3630 nM | 16 µg/mL (≈ 52.1 µM) | 8 µg/mL (≈ 26 µM) |
| NS(=O)(=O)c1ccc(/N=N/c2ccc(O)c(C(F)(F)F)c2)cc1 [4d, (E)-4-((4-hydroxy-3-(trifluoromethyl)phenyl)diazenyl)benzenesulfonamide] | 20.1 nM | 4.8 nM | 182 nM | 94.7 nM | 39 nM | 738 nM | 40.2 nM | 19.4 nM | 222 nM | 3170 nM | 128 µg/mL (≈ 371 µM) | 64 µg/mL (≈ 185 µM) |
| NS(=O)(=O)c1ccc(/N=N/c2ccc(O)cc2C(F)(F)F)cc1 [4e, (E)-4-((4-hydroxy-2-(trifluoromethyl)phenyl)diazenyl)benzenesulfonamide] | 5.4 nM | 4.2 nM | 191 nM | 347 nM | 89.2 nM | 95.3 nM | 54.1 nM | 68.8 nM | 495 nM | 899 nM | 16 µg/mL (≈ 46.3 µM) | 8 µg/mL (≈ 23.2 µM) |
